The values below come from patent US20100173888A1 (Pfizer Inc, priority 2008, published 2010).

Each structure is given as a SMILES string.

This test addresses human recombinant H-PGDS (Homo sapiens, UniProt O60760). The experiment in a line: Slightly modified fluorescence intensity h-PGDS TBA enzyme assay (1:40,000 enzyme, 40 second reaction, 1/2 log dilutions, top concentration typically 10 μM). It counts as biochemical. Conditions: slightly modified assay: 1:40,000 human recombinant H-PGDS. The method in brief:
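Enzyme pre-incubated 10 min at room temperature with inhibitor in 100 mM Trizma pH 8.0, 100 μM MgCl2, 0.1 mg/ml rabbit IgG, 2.5 mM glutathione, 0.5% DMSO; reaction started with 5.0 μM PGH2 and stopped with FeCl2/citric acid. Remaining PGH2 quantified as MDA–TBA fluorescence (ex 530/em 560 nm); IC50 from 4-parameter fit, 11 concentrations in duplicate.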

Sequence of human recombinant H-PGDS (O60760 whole entry): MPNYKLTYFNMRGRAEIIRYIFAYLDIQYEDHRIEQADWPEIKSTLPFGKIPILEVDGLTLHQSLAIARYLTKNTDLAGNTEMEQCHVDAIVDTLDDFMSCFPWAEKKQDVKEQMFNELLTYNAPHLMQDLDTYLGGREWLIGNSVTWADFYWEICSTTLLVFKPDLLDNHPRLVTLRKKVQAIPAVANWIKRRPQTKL

`N[C@@H]1CCCC[C@H]1NC(=O)[C@@H]1CCC[C@H](NC(=O)c2ccc(-c3cccc(F)c3)nc2)C1` (mixture of isomers) [Example 64C, N-[cis-3-{[(1R,2R)-2-aminocyclohexyl]carbamoyl}cyclohexyl]-6-(3-fluorophenyl)nicotinamide]: the IC50 stood at 0.047 µM.

Take `CCN(CC)C(=O)[C@@H]1CCC[C@H](NC(=O)c2ccc(-c3cccc(F)c3)nc2)C1` (relative stereo) [Example 40, N-[cis-3-(Diethylcarbamoyl)cyclohexyl]-6-(3-fluorophenyl)nicotinamide]: the IC50 came out at 0.009 µM.

Consider `O=C(N[C@H]1CC[C@@H](C(=O)NCc2ccccc2)CC1)c1ccc(-c2cccc(F)c2)nc1` [Example 71, N-[cis-4-(Benzylcarbamoyl)cyclohexyl]-6-(3-fluorophenyl)nicotinamide], for which the IC50 was 0.022 µM.

Consider `O=C(NC1CCC(n2ccnc2)CC1)c1ccc(-c2cccc(F)c2)nc1` (stereo not drawn) [Example 47, 6-(3-Fluorophenyl)-N-[4-(1H-imidazol-1-yl)cyclohexyl]nicotinamide], for which the IC50 came out at 0.023 µM.

Turning to `CC(C)(O)[C@H]1CC[C@H](NC(=O)c2ccc(-c3cccc(F)c3)nc2)CC1` [Example 97, 6-(3-Fluorophenyl)-N-[trans-4-(1-hydroxy-1-methylethyl)cyclohexyl]nicotinamide], the concentration for half-maximal inhibition (IC50) was found to be 0.0029 µM.

With `O=C(N[C@H]1CC[C@@H](O)CC1)c1ccc(-c2cccc(F)c2)nc1` [Example 65, 6-(3-Fluorophenyl)-N-(cis-4-hydroxycyclohexyl)nicotinamide], the IC50 came to 0.0157 µM.

As to `O=C(N[C@@H]1CC[C@H](C(=O)O)C1)c1ccc(-c2cccc(F)c2)nc1` [Example 11a, (1S,3R)-3-({[6-(3-Fluorophenyl)pyridin-3-yl]carbonyl}amino)cyclopentanecarboxylic acid], the IC50 turned out to be 0.125 µM.

For the molecule `O=C(N[C@@H]1CC[C@H](C(=O)N2CCC(O)CC2)C1)c1ccc(-c2cccc(F)c2)nc1` [Example 14, 6-(3-Fluorophenyl)-N-{(1R,3S)-3-[(4-hydroxypiperidin-1-yl)carbonyl]cyclopentyl}nicotinamide], the IC50 is 0.00748 µM.

As to `O=C(N[C@H]1CCC[C@@H](C(=O)N2CCNCC2)C1)c1ccc(-c2cccc(F)c2)nc1` (relative stereo) [Example 42, 6-(3-Fluorophenyl)-N-[cis-3-(piperazin-1-ylcarbonyl)cyclohexyl]nicotinamide], the IC50 worked out at 0.0102 µM.

For `O=C(N[C@H]1CC[C@H](C(=O)N2CCOCC2)CC1)c1ccc(-c2cccc(F)c2)nc1` [Example 91, 6-(3-Fluorophenyl)-N-[trans-4-(morpholin-4-ylcarbonyl)cyclohexyl]nicotinamide], the IC50 turned out to be 0.00394 µM.

With `COCCNC(=O)[C@@H]1CCC[C@H](NC(=O)c2ccc(-c3cccc(F)c3)nc2)C1` [Example 64A, 6-(3-fluorophenyl)-N-{(1S,3R)-3-[(2-methoxyethyl)carbamoyl]cyclohexyl}nicotinamide], the IC50 was determined as 0.0083 µM.

In the case of `O=C(N[C@H]1CCC[C@@H](C(=O)N2CCOCC2)C1)c1ccc(-c2cccc(F)c2)nc1` (relative stereo) [Example 36, 6-(3-Fluorophenyl)-N-[cis-3-(morpholin-4-ylcarbonyl)cyclohexyl]nicotinamide], the IC50 was 0.00834 µM.

Regarding `CN(Cc1ccccc1)C(=O)[C@@H]1CCC[C@H](NC(=O)c2ccc(-c3cccc(F)c3)nc2)C1` (relative stereo) [Example 39, N-{cis-3-[Benzyl(methyl)carbamoyl]cyclohexyl}-6-(3-fluorophenyl)nicotinamide], the IC50 was found to be 0.00426 µM.

Turning to `O=C(N[C@@H]1CCC[C@H](C(=O)O)C1)c1ccc(-c2cccc(F)c2)nc1` (relative stereo) [Example 27, cis-3-({[6-(3-Fluorophenyl)pyridin-3-yl]carbonyl}amino)cyclohexanecarboxylic acid], the IC50 was found to be 0.0142 µM.

With `O=C(N[C@H]1CC[C@H](OCCO)CC1)c1ccc(-c2cccc(F)c2)nc1` [Example 89, 6-(3-Fluorophenyl)-N-[trans-4-(2-hydroxyethoxy)cyclohexyl]nicotinamide], the IC50 was 0.00393 µM.

`O=C(N[C@@H]1CC[C@H](C(=O)N2CC[C@H](O)C2)C1)c1ccc(-c2cccc(F)c2)nc1` [Example 15, 6-(3-Fluorophenyl)-N-[(1R,3S)-3-{[(3S)-3-hydroxypyrrolidin-1-yl]carbonyl}cyclopentyl]nicotinamide]: the IC50 was found to be 0.0103 µM.

For `CN1CCN(C(=O)[C@H]2CC[C@H](NC(=O)c3ccc(-c4cccc(F)c4)nc3)CC2)CC1` [Example 90, 6-(3-Fluorophenyl)-N-{trans-4-[(4-methylpiperazin-1-yl)carbonyl]cyclohexyl}nicotinamide], the IC50 is 0.0126 µM.

Consider `CN1CCN(C(=O)[C@H]2CC[C@@H](NC(=O)c3ccc(-c4cccc(F)c4)nc3)CC2)CC1` [Example 72, 6-(3-Fluorophenyl)-N-{cis-4-[(4-methylpiperazin-1-yl)carbonyl]cyclohexyl}nicotinamide], for which the IC50 is 0.0232 µM.

Take `CCN(C)C(=O)[C@@H]1CCC[C@H](NC(=O)c2ccc(-c3cccc(F)c3)nc2)C1` (relative stereo) [Example 32, N-{cis-3-[Ethyl(methyl)carbamoyl]cyclohexyl}-6-(3-fluorophenyl)nicotinamide]: the IC50 is 0.0379 µM.

Turning to `CN1CCN(C[C@H]2CC[C@@H](NC(=O)c3ccc(-c4cccc(F)c4)nc3)CC2)CC1` [Example 81, 6-(3-Fluorophenyl)-N-{cis-4-[(4-methylpiperazin-1-yl)methyl]cyclohexyl}nicotinamide], the IC50 came out at 0.0534 µM.

For the molecule `C[C@]1(O)CC[C@H](NC(=O)c2ccc(-c3cccc(F)c3)nc2)CC1` [Example 115, 6-(3-Fluorophenyl)-N-(trans-4-hydroxy-4-methylcyclohexyl)nicotinamide], the IC50 worked out at 0.00874 µM.

In the case of `O=C(N[C@@H]1CCC[C@H](O)C1)c1ccc(-c2cccc(F)c2)nc1` (relative stereo) [Example 26, 6-(3-Fluorophenyl)-N-[cis-3-hydroxycyclohexyl]nicotinamide], the IC50 worked out at 0.0182 µM.

`Cn1nnnc1O[C@H]1CC[C@H](NC(=O)c2ccc(-c3cccc(F)c3)nc2)CC1` [Example 82, 6-(3-Fluorophenyl)-N-{trans-4-[(1-methyl-1H-tetrazol-5-yl)oxy]cyclohexyl}nicotinamide]: the IC50 worked out at 0.0126 µM.

Consider `CCN1CCC(NC(=O)[C@@H]2CCC[C@H](NC(=O)c3ccc(-c4cccc(F)c4)nc3)C2)CC1` (relative stereo) [Example 64M, N-{cis-3-[(1-ethylpiperidin-4-yl)carbamoyl]cyclohexyl}-6-(3-fluorophenyl)nicotinamide], for which the IC50 turned out to be 0.509 µM.

For the molecule `CN(C)C(=O)C[C@H]1CC[C@@H](NC(=O)c2ccc(-c3cccc(F)c3)nc2)CC1` [Example 78], the IC50 was 0.00789 µM.

Consider `O=C(N[C@H]1CC[C@@H](C(=O)N2CCCC2)CC1)c1ccc(-c2cccc(F)c2)nc1` [Example 70, 6-(3-Fluorophenyl)-N-[cis-4-(pyrrolidin-1-ylcarbonyl)cyclohexyl]nicotinamide], for which the half-inhibitory concentration (IC50) was determined as 0.00462 µM.

Consider `O=C(N[C@H]1CCC[C@@H](C(=O)NC2CCCC2)C1)c1ccc(-c2cccc(F)c2)nc1` (relative stereo) [Example 33, N-[cis-3-(Cyclopentylcarbamoyl)cyclohexyl]-6-(3-fluorophenyl)nicotinamide], for which the IC50 was found to be 0.01 µM.

Regarding `CN(C)C(=O)C[C@H]1CC[C@H](NC(=O)c2ccc(-c3cccc(F)c3)nc2)CC1` [Example 95, N-{trans-4-[2-(Dimethylamino)-2-oxoethyl]cyclohexyl}-6-(3-fluorophenyl)nicotinamide], the IC50 came out at 0.00628 µM.

On to `CN[C@H]1CC[C@H](NC(=O)c2ccc(-c3cccc(F)c3)nc2)CC1` [Example 94, 6-(3-Fluorophenyl)-N-[trans-4-(methylamino)cyclohexyl]-nicotinamide], for which the IC50 is 0.0519 µM.

Turning to `N[C@H]1CCN(C(=O)[C@H]2CC[C@@H](NC(=O)c3ccc(-c4cccc(F)c4)nc3)C2)C1` [Example 16, N-[(1R,3S)-3-{[(3S)-3-Aminopyrrolidin-1-yl]carbonyl}cyclopentyl]-6-(3-fluorophenyl)nicotinamide], the IC50 came out at 0.0291 µM.

Take `O=C(NC1CCC(N2CCCOCC2)CC1)c1ccc(-c2cccc(F)c2)nc1` (stereo not drawn) [Example 53, 6-(3-Fluorophenyl)-N-[4-(1,4-oxazepan-4-yl)cyclohexyl]nicotinamide]: the IC50 was found to be 0.00926 µM.

Turning to `CO[C@H]1CC[C@H](NC(=O)c2ccc(-c3cccc(F)c3)nc2)CC1` [Example 83, 6-(3-Fluorophenyl)-N-(trans-4-methoxycyclohexyl)nicotinamide], the IC50 stood at 0.00693 µM.

As to `Cc1nccn1C[C@H]1CC[C@@H](NC(=O)c2ccc(-c3cccc(F)c3)nc2)CC1` [Example 79, 6-(3-Fluorophenyl)-N-{cis-4-[(2-methyl-1H-imidazol-1-yl)methyl]cyclohexyl}nicotinamide], the IC50 came out at 0.0159 µM.

Consider `C[C@]1(C(=O)O)CC[C@@H](NC(=O)c2ccc(-c3cccc(F)c3)nc2)CC1` [Example 116, cis-4-({[6-(3-Fluorophenyl)pyridin-3-yl]carbonyl}amino)-1-methylcyclohexanecarboxylic acid], for which the IC50 was found to be 0.139 µM.

As to `C[C@]1(C(=O)O)CC[C@H](NC(=O)c2ccc(-c3cccc(F)c3)nc2)CC1` [Example 117, trans-4-({[6-(3-Fluorophenyl)pyridin-3-yl]carbonyl}amino)-1-methylcyclohexanecarboxylic acid], the IC50 amounted to 0.00717 µM.

Regarding `O=C(N[C@H]1CCC[C@@H](C(=O)N[C@H]2CCNC2=O)C1)c1ccc(-c2cccc(F)c2)nc1` (mixture of isomers) [Example 64H, 6-(3-fluorophenyl)-N-[cis-3-{[(3S)-2-oxopyrrolidin-3-yl]carbamoyl}cyclohexyl]nicotinamide], the IC50 came out at 0.013 µM.

For orientation: IC50 means the concentration needed to halve the response being measured.
